The assay deals with Neutrophil elastase activity in U937 cells. Description: Determination of neutrophil elastase activity in U937 cytosolic lysate preparation after incubation with test compound. The assay is classed as cell-based. To be noted: Homo sapiens, U-937, read-out: Reduction of NE-activity in U937 cells IC50. The method, then:
Determination of Neutrophil Elastase Activity in U937 Cytosolic Lysate Preparation after Incubation with Test Compound
Optiplate 384F were purchased from PerkinElmer (Prod. No. #6007270). 24 well Nunclon cell culture plates (No. 142475) and 96 well plates (No. 267245) were from Nunc. Dimethylsulfoxid (DMSO) was from Sigma (Prod. No. D8418). Nonidet-P40 (NP40) was from USBiological (Prod. No. N3500)
Substrate, specific for Neutrophil elastase, was from Bachem (MeOSuc-Ala-Ala-Pro-Val-AMC; Prod. No. 1-1270).
Human neutrophil elastase was from Calbiochem (Prod. No. 324681)
Tris-buffer (100 mM Tris; 1M NaCL; pH 7.5)
Tris-buffer+HSA 0.1%; Human Serum Albumin from Calbiochem (Cat#. 126658)
Serine-protease buffer (20 mM Tris; 100 mM NaCL; pH 7.5)+0.1% HSA
Serine protease lysis buffer: 20 mM Tris-HCL; 100 mM NaCl pH 7.5; +0.2% Nonidet-P40;
PBS: phosphate buffered saline, without Ca and Mg, from Gibco
U937 from ECACC (Cat. No. 85011440) cultured in suspension at 37° C. and 5% CO2.
Cell density: 0.2-1 Mio. Cells/ml.
Medium: RPMI1640 GlutaMAX (No. 61870) with 10% FCS from Gibco
Cell Seeding and Treatment:
Compounds in 100% DMSO were diluted in Medium (—FCS) with 10% DMSO and further diluted according to the experiment planned.
20 μl of the compound solution was transferred in the respective wells of the 24 well plate and diluted with 2 ml cell suspension/well containing […] (final concentration of DMSO=0.1%). Compound dilution factor=100
Compounds (up to 7 concentrations) were tested in triplicates with 3 wells for the DMSO 0.1% control, incubated for 48 hours without medium change at 37° C., 5% CO2 and 95% relative humidity.
Cell Harvesting and Cell Lysate:
Transfer the cell suspension in 2.2 ml Eppendorf cups. Separate cells from medium by centrifugation (400×g; 5 min; RT); discard the supernatant. Resuspend in 1 ml PBS; centrifugation (400×g; 5 min; RT); wash cells twice with PBS. Add 100 μl Serin lysis buffer (ice cold) to the cell pellet; resuspend the pellet and store on ice for 15 minutes. Remove debris by centrifugation at 15000×g for 10 min at 4° C. Transfer 80-100 μl lysate supernatant in 96 well plate and store immediately at −80° C.
Neutrophil Elastase Activity Assay:
Frozen lysates were thawn at 37° C. for 10 minutes and stored on ice. Protein content was determined with Bradford protein assay. Lysates were diluted to 0.2-0.5 mg/ml protein in serine protease buffer+HSA.
Standard: NE (100 μg/ml stock solution in Tris-buffer; stored at −80° C.) was diluted in Tris-buffer+HSA to 750 ng/ml, and further serially diluted 1:2 for the standard curve.
Buffer, blank, standard and lysate samples were transferred into 384 well plate
Blank: 5 μl Tris-buffer+10 μl Tris-buffer+HSA+5 μl Substrate
Standard: 5 μl Tris-buffer+10 μl NE (diff. conc.)+5 μl Substrate
Lysate: 5 μl Tris-buffer+10 μl Lysat+[…] Substrate
The increase in fluorescence (Ex360 nm/Em 460 nm) is determined over 30 minutes with a Molecular Device Spectramax M5 Fluorescence Reader. Kinetic Reduction (Vmax units/sec); 4 vmax points. The amount of neutrophil elastase (ng/ml) is calculated using the standard curve and the Spectramax software. The result is interpolated to ng/mg lysate protein using excel formula functions. […] IC50 is calculated using Graphpad Prism; nonlinear fitting (log(inhibitor) vs. response—Variable slope).

In general, IC50 refers to the point on the concentration scale where inhibition reaches its midpoint. In the case of `N#C[C@H](Cc1ccc(C2=CC3COCCN3CC2)cc1F)NC(=O)[C@H]1N[C@@H]2CC[C@H]1C2` (stereo partly shown) [Example 282], the IC50 was 3.4 nM.
As for `CNc1nc2cc(-c3ccc(C[C@@H](C#N)NC(=O)[C@H]4N[C@@H]5CC[C@H]4C5)c(F)c3)ccc2n1C` [Example 253], the figure is 5.5 nM.
In the case of `CN1Cc2ccc(-c3ccc(C[C@@H](C#N)NC(=O)[C@H]4N[C@@H]5CC[C@H]4C5)c(F)c3)cc2C1` [Example 1, (1S,2S,4R)—N-[(1S)-1-cyano-2-[2-fluoro-4-(2-methylisoindolin-5-yl)phenyl]ethyl]-3-azabicyclo[2.2.1]heptane-2-carboxamide], the IC50 came to 2.3 nM.
As to `N#CC(Cc1cc2c(=O)[nH]c3ccc(F)cc3c2cc1F)NC(=O)[C@H]1N[C@@H]2CC[C@H]1C2` (stereo partly shown) [Example 295], the IC50 was found to be 8.6 nM.
`CCN1CC=C(c2ccc(C[C@@H](C#N)NC(=O)[C@H]3N[C@@H]4CC[C@H]3C4)c(F)c2)CC1` [Example 320]: the IC50 came to 3.7 nM.
In the case of `CC1CN(c2ccc(C[C@@H](C#N)NC(=O)[C@H]3N[C@@H]4CC[C@H]3C4)c(F)c2)C(C)CN1C` (stereo partly shown) [Example 196], the IC50 was 5.3 nM.
With `COCCN1CCN(C(=O)c2cc(-c3ccc(C[C@@H](C#N)NC(=O)[C@H]4N[C@@H]5CC[C@H]4C5)c(F)c3)cs2)CC1` [Example 228], the IC50 stood at 4.6 nM.
With `CN(C)CCn1cc(-c2ccc(C[C@@H](C#N)NC(=O)[C@H]3N[C@@H]4CC[C@H]3C4)c(F)c2)ccc1=O` [Example 342], the IC50 is 24.7 nM.
Turning to `N#C[C@H](Cc1ccc(N2CCN3CCOC[C@H]3C2)cc1F)NC(=O)[C@H]1N[C@@H]2CC[C@H]1C2` [Example 250], the IC50 was 11.5 nM.
Next, `N#C[C@H](Cc1ccc(-c2ccc(S(=O)(=O)N3CCCCC3)cc2)cc1F)NC(=O)[C@H]1N[C@@H]2CC[C@H]1C2` [Example 177]: 9.2 nM; `CN(C)CCCN1C(=O)Cc2ccc(-c3ccc(C[C@@H](C#N)NC(=O)[C@H]4N[C@@H]5CC[C@H]4C5)c(F)c3)cc21` [Example 277]: 3.6 nM; `CN1CCN(C(=O)c2cccc(-c3ccc(C[C@@H](C#N)NC(=O)[C@H]4N[C@@H]5CC[C@H]4C5)c(F)c3)c2)CC1` [Example 245]: 3.8 nM.
For the molecule `COCCN1CCN(c2ccc(C[C@@H](C#N)NC(=O)[C@H]3N[C@@H]4CC[C@H]3C4)c(F)c2)CC1` [Example 182], the IC50 came to 8.1 nM.
In the case of `N#C[C@H](Cc1ccc(-c2ccc(=O)n(CC(F)F)c2)cc1F)NC(=O)[C@H]1N[C@@H]2CC[C@H]1C2` [Example 343], the IC50 was 16.9 nM.
Consider `N#C[C@H](Cc1ccc(N2CCN(CC3CCCO3)CC2)cc1F)NC(=O)[C@H]1N[C@@H]2CC[C@H]1C2` (stereo partly shown) [Example 154], for which the IC50 was found to be 4.6 nM.
As to `CN1CCN(C(=O)c2ccc(-c3ccc(C[C@@H](C#N)NC(=O)[C@H]4N[C@@H]5CC[C@H]4C5)c(F)c3)cc2)CC1` [Example 185], the IC50 worked out at 3.9 nM.
Next, `N#C[C@H](Cc1cc2c(=O)[nH]c3ccccc3c2cc1F)NC(=O)[C@H]1N[C@@H]2CC[C@H]1C2` [Example 322]: 2.1 nM; `N#CC(Cc1cc2c(=O)[nH]c3ccccc3c2cc1F)NC(=O)[C@H]1N[C@@H]2CC[C@H]1C2` (stereo partly shown) [Example 294]: 7.8 nM; `CS(=O)(=O)c1ccc(-c2ccc(C[C@@H](C#N)NC(=O)[C@H]3N[C@@H]4CC[C@H]3C4)c(F)c2)cc1` [Example 16]: 14.5 nM.
Next, `N#C[C@H](Cc1ccc(-c2csc(C(=O)N3CCN(CC(F)(F)F)CC3)c2)cc1F)NC(=O)[C@H]1N[C@@H]2CC[C@H]1C2` [Example 232]: 5.2 nM; `N#Cc1cc(F)c2[nH]c(=O)c3cc(C[C@@H](C#N)NC(=O)[C@H]4N[C@@H]5CC[C@H]4C5)c(F)cc3c2c1` [Example 325]: 4.7 nM; `N#C[C@H](Cc1ccc(-c2ccc3c(c2)NC(=O)C3)cc1F)NC(=O)[C@H]1N[C@@H]2CC[C@H]1C2` [Example 29]: 8.8 nM.
On to `CN1CC=C(c2ccc(C[C@@H](C#N)NC(=O)[C@H]3N[C@@H]4CC[C@H]3C4)c(F)c2)CC1` [Example 223], for which the IC50 stood at 3 nM.
As for `N#C[C@H](Cc1cc2c(=O)[nH]c3cc(F)ccc3c2cc1F)NC(=O)[C@H]1N[C@@H]2CC[C@H]1C2` [Example 323], the IC50 is 1.4 nM.
As for `N#C[C@H](Cc1ccc(-c2ccc(C(=O)N3CCn4nccc4C3)s2)cc1F)NC(=O)[C@H]1N[C@@H]2CC[C@H]1C2` [Example 237], the IC50 worked out at 9.6 nM.
With `N#C[C@H](Cc1ccc(C2=CCN3CCOCC3C2)cc1F)NC(=O)[C@H]1N[C@@H]2CC[C@H]1C2` (stereo partly shown) [Example 281], the concentration for half-maximal inhibition (IC50) is 1.9 nM.
Take `CN1C(=O)Cc2ccc(-c3ccc(C[C@@H](C#N)NC(=O)[C@H]4N[C@@H]5CC[C@H]4C5)c(F)c3)cc21` [Example 2, (1S,2S,4R)—N-[(1S)-1-cyano-2-[2-fluoro-4-(1-methyl-2-oxo-indolin-6-yl)phenyl]ethyl]-3-azabicyclo[2.2.1]heptane-2-carboxamide]: the IC50 is 6.2 nM.
On to `CN1CCC2(CC1)CC(c1ccc(C[C@@H](C#N)NC(=O)[C@H]3N[C@@H]4CC[C@H]3C4)c(F)c1)C2` [Example 358], for which the IC50 came out at 3.7 nM.
Take `N#CC(Cc1ccc2c(c1)c(=O)[nH]c1c(F)c(F)ccc12)NC(=O)[C@H]1N[C@@H]2CC[C@H]1C2` (stereo partly shown) [Example 300]: the IC50 came out at 8.9 nM.
Turning to `N#C[C@H](Cc1ccc(-c2csc(C(=O)N3CCN4CCOCC4C3)c2)cc1F)NC(=O)[C@H]1N[C@@H]2CC[C@H]1C2` (stereo partly shown) [Example 234], the IC50 was found to be 6.9 nM.
Regarding `CN(C)CCN1C(=O)Cc2ccc(-c3ccc(C[C@@H](C#N)NC(=O)[C@H]4N[C@@H]5CC[C@H]4C5)c(F)c3)cc21` [Example 278], the IC50 amounted to 1 nM.
Consider `CN(C)CC1CCCN(c2ccc(C[C@@H](C#N)NC(=O)[C@H]3N[C@@H]4CC[C@H]3C4)c(F)c2)C1` (stereo partly shown) [Example 345], for which the IC50 worked out at 6.9 nM.
On to `CN1CCc2cc(-c3ccc(C[C@@H](C#N)NC(=O)[C@H]4N[C@@H]5CC[C@H]4C5)c(F)c3)ccc2C1=O` [Example 42], for which the IC50 came to 8.3 nM.
As for `CC(C)N1CCCN(c2ccc(C[C@@H](C#N)NC(=O)[C@H]3N[C@@H]4CC[C@H]3C4)c(F)c2)CC1` [Example 267], the IC50 is 2.7 nM.
For `CN1C2CCC1CN(c1ccc(C[C@@H](C#N)NC(=O)[C@H]3N[C@@H]4CC[C@H]3C4)c(F)c1)C2` [Example 333], the IC50 was found to be 4.7 nM.
For `N#C[C@H](Cc1ccc(-c2csc(C(=O)N3CCn4nccc4C3)c2)cc1F)NC(=O)[C@H]1N[C@@H]2CC[C@H]1C2` [Example 226], the IC50 was found to be 1.8 nM.
Consider `CN1CCC2(C=C(c3ccc(C[C@@H](C#N)NC(=O)[C@H]4N[C@@H]5CC[C@H]4C5)c(F)c3)C2)CC1` [Example 359], for which the IC50 was found to be 2.9 nM.
Regarding `N#C[C@H](Cc1ccc(N2CCN3CCC[C@H]3C2)cc1F)NC(=O)[C@H]1N[C@@H]2CC[C@H]1C2` [Example 270], the IC50 stood at 1.4 nM.
Consider `COCCN1CCN(c2ccc(C[C@@H](C#N)NC(=O)[C@H]3N[C@@H]4CC[C@H]3C4)c(F)c2)CC1C` (stereo partly shown) [Example 178], for which the IC50 was 3.6 nM.
For the molecule `CN1CCC2CN(c3ccc(C[C@@H](C#N)NC(=O)[C@H]4N[C@@H]5CC[C@H]4C5)c(F)c3)CC21` (stereo partly shown) [Example 349], the concentration for half-maximal inhibition (IC50) came to 2.8 nM.
As for `CN1CCN(C(=O)c2coc(-c3ccc(C[C@@H](C#N)NC(=O)[C@H]4N[C@@H]5CC[C@H]4C5)c(F)c3)c2)CC1` [Example 241], the half-inhibitory concentration (IC50) was 5.3 nM.
Turning to `CN1CCC(N2C(=O)Cc3ccc(-c4ccc(C[C@@H](C#N)NC(=O)[C@H]5N[C@@H]6CC[C@H]5C6)c(F)c4)cc32)CC1` [Example 346], the IC50 is 6.8 nM.
On to `N#C[C@H](Cc1ccc(N2CCN(C3CC3)CC2)cc1F)NC(=O)[C@H]1N[C@@H]2CC[C@H]1C2` [Example 187], for which the IC50 was 7.3 nM.

The record behind these values is US10238633B2, “Methods for treating pulmonary emphysema using substituted 2-Aza-bicyclo[2.2.1]heptane-3-carboxylic acid (benzyl-cyano-methyl)-amides inhibitors of Cathepsin C” (Boehringer Ingelheim International GmbH, priority 2013, dated 2019).
